For 21 compounds, IC50 results are on record in patent US9452997B2, “Piperidine and piperazine derivatives as autotaxin inhibitors” (Merck Patent GmbH, priority 2009, dated 2016).

This test addresses T1, Recombinant autotaxin (Homo sapiens, UniProt Q13822).
T1 construct: made in house; host or cells: Hi5 insect cells (baculovirus)
Description: Autotaxin assay (Amplex Red, LPC substrate). Conditions: recombinant autotaxin, LPC substrate, Amplex Red detection; values given as upper bounds. Type of test: biochemical. The method, then:
Autotaxin activity is measured indirectly by means of Amplex Red Reagent. In this course, Amplex Red is measured as fluorogenic indicator for generated H2O2. Autotaxin converts substrate lysophosphatidylcholine (LPC) to phosphocholine and lysophosphatidylic acid (LPA). After the conversion phosphocholine is reacted with alkaline phosphatase to obtain inorganic phosphate and choline. During the next step choline is oxidized with choline oxidase to yield betaine, whereby H2O2 is generated. H2O2 reacts with Amplex Red Reagent in the presence of peroxidase (Horseradish peroxidase) in an 1:1 stochiometry and yields highly fluorescent resorufin. The generated fluorescence is measured in a reaction-dependent kinetic mode in order to enable subtraction of fluorescence signals of possible other fluorescent compounds that are not part of the reaction from total measured fluorescence.
1.5 μl of a standard solution or of the compounds of the invention are dissolved in 20 mM Hepes pH 7.2 with maximally 7.7% DMSO in individual concentrations. The resulting solution is pre-incubated together with 10 μl (16 ng) of highly purified recombinant autotaxin in a black 384-hole microtiter plate for 30 min at 22° C.
Thereafter, the reaction is started through the addition of 5 μL-a-lysophosphatidyl-choline (LPC), whereby the final concentration of LPC is 75 μM. The mixture is incubated for 90 min. at 37° C. After the incubation Amplex Red Reagent, peroxidase (Horseradish peroxidase) and choline oxidase are added. The fluorescence is immediately measured at a wavelength of 612 nm with an excitation wavelength of 485 nm in a “Tecan Ultra multimode” fluorescence reader. The activity of autotaxin is indirectly calculated via the amount of detected generated H2O2.
For IC50 analysis, ten serial 1:3 dilutions starting at 30 μM for each compound were run in duplicates.
IC50 values were calculated on normalized data. For normalization, control wells were added to each assay plate and the signal of uninhibited control wells was set to 100%, whereas the signal inhibited by 500 μM C14 LPA, (Avanti Polar Lipids, Cat#857120P) was set to 0%. Curves were fitted and IC50 values calculated by the following model using proprietory analysis software: Y=Bottom+(100−Bottom)/(1+10^((Log IC50−X)*HillSlope)) Where X is the logarithm of concentration. Y is the response; Y starts at Bottom and goes to Top with a sigmoid shape. Material
Microtiter plate: PS-Microplate, 384-hole, small volume, black Corning, Cat#3677
Protein: Recombinant autotaxin (baculoviral Hi5 expression)
Substrate: L-a-lysophosphatidyl choline (chicken egg); Avanti Polar Lipids #830071P
Standard: C14 LPA, Avanti Polar Lipids, Cat#857120P
Detection Reagent: Amplex Red Reagent; Invitrogen #A12222; dissolved in 1.923 ml of DMSO peroxidase Type VI-A (horseradish), Sigma #P6782; dissolved in 7.45 ml of test buffer, Choline Oxidase; Sigma #C5896; dissolved in 2.47 ml test buffer
Detection Reagent Mix: 1:100 dilution of Amplex Red Regent in test buffer
Test buffer: 200 mM Tris-HCl, Merck, Cat #1.08219, pH 7.9; 0.1% BSA, lipid free, Roche Cat#775835

The IC50 is the concentration that inhibits the measured activity by half. In the case of `O=C(c1ccc2[nH]nnc2c1)N1CCC(N2CCN(C(=O)c3nc4cc(C(F)(F)F)ccc4[nH]3)CC2)CC1` [Compound 52, (1H-Benzotriazol-5-yl)-{4-[4-(5-trifluoromethyl-1H-benzoimidazole-2-carbonyl)-piperazin-1-yl]-piperidin-1-yl}-methanone], the IC50 was below 10 µM. For `O=C(NCCc1c[nH]cn1)C1CC(=O)N(C2CCN(C(=O)OCc3cc(Cl)cc(Cl)c3)CC2)C1` (stereo not drawn) [Compound 53, 4-{4-[2-(1H-Imidazol-4-yl)-ethylcarbamoyl]-2-oxo-pyrrolidin-1-yl}-piperidine-1-carboxylic acid 3,5-dichloro-benzyl ester] the value was below 10 µM; for `O=C(Nc1ccc(-n2cncn2)cc1)C1CC(=O)N(C2CCN(C(=O)OCc3cc(Cl)cc(Cl)c3)CC2)C1` (stereo not drawn) [Compound 54, 4-[2-Oxo-4-(4-[1,2,4]triazol-1-yl-phenylcarbamoyl)-pyrrolidin-1-yl]-piperidine-1-carboxylic acid 3,5-dichloro-benzyl ester], below 10 µM; for `O=C(Nc1ccc(-n2cccn2)cc1)C1CC(=O)N(C2CCN(C(=O)OCc3cc(Cl)cc(Cl)c3)CC2)C1` (stereo not drawn) [Compound 55, 4-[2-Oxo-4-(4-pyrazol-1-yl-phenylcarbamoyl)-pyrrolidin-1-yl]-piperidine-1-carboxylic acid 3,5-dichloro-benzyl ester], below 10 µM. Take `CC1=NN(c2ccc(NC(=O)C3CC(=O)N(C4CCN(C(=O)OCc5cc(Cl)cc(Cl)c5)CC4)C3)cc2)C(=O)C1` (stereo not drawn) [Compound 56, 4-{4-[4-(3-Methyl-5-oxo-4,5-dihydro-pyrazol-1-yl)-phenylcarbamoyl]-2-oxo-pyrrolidin-1-yl}-piperidine-1-carboxylic acid 3,5-dichloro-benzyl ester]: the IC50 was below 10 µM. For `O=C(Nc1ccc(-c2csnn2)cc1)C1CC(=O)N(C2CCN(C(=O)OCc3cc(Cl)cc(Cl)c3)CC2)C1` (stereo not drawn) [Compound 57, 4-[2-Oxo-4-(4-[1,2,3]thiadiazol-4-yl-phenylcarbamoyl)-pyrrolidin-1-yl]-piperidine-1-carboxylic acid 3,5-dichloro-benzyl ester] the value was below 10 µM; for `O=C(/C=C/c1c[nH]cn1)N1CCN(C2CCN(C(=O)CCc3ccc(C(F)(F)F)cc3)CC2)CC1` [Compound 58, (E)-3-(3H-Imidazol-4-yl)-1-(4-{1-[3-(4-trifluoromethyl-phenyl)-propionyl]-piperidin-4-yl}-piperazin-1-yl)-propenone], below 10 µM; for `CS(=O)(=O)Nc1ccc(C(=O)N2CCN(C3CCN(C(=O)CCc4ccc(C(F)(F)F)cc4)CC3)CC2)cc1` [Compound 59, N-[4-(4-{1-[3-(4-Trifluoromethyl-phenyl)-propionyl]-piperidin-4-yl}-piperazine-1-carbonyl)-phenyl]-methanesulfonamide], below 10 µM. The value for `O=C(CCc1ccc(C(F)(F)F)cc1)N1CCC(N2CCN(C(=O)c3cccc(-c4ncc[nH]4)c3)CC2)CC1` [Compound 60, 1-(4-{4-[3-(1H-Imidazol-2-yl)-benzoyl]-piperazin-1-yl}-piperidin-1-yl)-3-(4-trifluoromethyl-phenyl)-propan-1-one] was below 30 µM; that for `O=C(CCc1ccc(Cl)cc1F)N1CCC(N2CCN(C(=O)c3ccc4[nH]nnc4c3)CC2)CC1` [Compound 61, 1-{4-[4-(1H-Benzotriazole-5-carbonyl)-piperazin-1-yl]-piperidin-1-yl}-3-(4-chloro-2-fluoro-phenyl)-propan-1-one] was below 10 µM. The value for `O=C(OCc1ccc(Cl)cc1F)N1CCC(N2CCN(C(=O)c3ccc4[nH]nnc4c3)CC2)CC1` [Compound 62, 4-[4-(1H-Benzotriazole-5-carbonyl)-piperazin-1-yl]-piperidine-1-carboxylic acid 4-chloro-2-fluoro-benzyl ester] was below 1 µM. Turning to `O=C(OCc1ccc(Cl)cc1F)N1CCC(NC2CCN(C(=O)c3ccc4[nH]nnc4c3)CC2)C1` (stereo not drawn) [Compound 63, 3-[1-(1H-Benzotriazole-5-carbonyl)-piperidin-4-ylamino]-pyrrolidine-1-carboxylic acid 4-chloro-2-fluoro-benzyl ester], the IC50 is below 10 µM.

Consider `O=C(CCc1ccc(Cl)cc1F)N1CCN(C2CCN(C(=O)c3ccc4[nH]c(=O)oc4c3)CC2)CC1` [Compound 64, 6-(4-{4-[3-(4-Chloro-2-fluoro-phenyl)-propionyl]-piperazin-1-yl}-piperidine-1-carbonyl)-3H-benzooxazol-2-one], for which the IC50 is below 10 µM. For `O=C(OCc1ccc(Cl)cc1F)N1CCN(C2CCN(C(=O)c3ccc4[nH]c(=O)oc4c3)CC2)CC1` [Compound 65, 4-[1-(2-Oxo-2,3-dihydro-benzooxazole-6-carbonyl)-piperidin-4-yl]-piperazine-1-carboxylic acid 4-chloro-2-fluoro-benzyl ester] the value was below 1 µM; for `O=C(CCc1ccc(Cl)cc1F)N1CCC(NC2CCN(C(=O)c3ccc4[nH]nnc4c3)CC2)C1` (stereo not drawn) [Compound 66, 1-{3-[1-(1H-Benzotriazole-5-carbonyl)-piperidin-4-ylamino]-pyrrolidin-1-yl}-3-(4-chloro-2-fluoro-phenyl)-propan-1-one], below 10 µM.

For `O=C(CCc1ccc(Cl)cc1F)N1CCN(C2CCN(C(=O)c3ccc4[nH]nnc4c3)CC2)CC1` [Compound 67, 1-{4-[1-(1H-Benzotriazole-5-carbonyl)-piperidin-4-yl]-piperazin-1-yl}-3-(4-chloro-2-fluoro-phenyl)-propan-1-one], the IC50 was below 10 µM. The value for `O=C(OCc1ccc(C(F)(F)F)cc1)N1CCC(NC2CCN(C(=O)c3ccc4[nH]nnc4c3)CC2)C1` (stereo not drawn) [Compound 68, 3-[1-(1H-Benzotriazole-5-carbonyl)-piperidin-4-ylamino]-pyrrolidine-1-carboxylic acid 4-trifluoromethyl-benzyl ester] was below 10 µM. Turning to `O=C(CCc1cc(Cl)cc(Cl)c1)N1CCN(C2CCN(C(=O)c3ccc4[nH]nnc4c3)CC2)CC1` [Compound 69, 1-{4-[1-(1H-Benzotriazole-5-carbonyl)-piperidin-4-yl]-piperazin-1-yl}-3-(3,5-dichloro-phenyl)-propan-1-one], the IC50 is below 10 µM. As to `O=C(OCc1ccc(C(F)(F)F)cc1)N1CCC(NC2CCN(C(=O)c3ccc4[nH]nnc4c3)C2)CC1` (stereo not drawn) [Compound 70, 4-[1-(1H-Benzotriazole-5-carbonyl)-pyrrolidin-3-ylamino]-piperidine-1-carboxylic acid 4-trifluoromethyl-benzyl ester], the IC50 was below 10 µM.

Turning to `O=C(OCc1ccc(C(F)(F)F)cc1)N1CCC(N2CCN(C(=O)c3ccc4[nH]nnc4c3)CC2)CC1` [Compound 71, 4-[4-(1H-Benzotriazole-5 carbonyl)-piperazin-1-yl]-piperidine-1-carboxylic acid 4-trifluoromethyl-benzyl ester], the IC50 is below 1 µM. Consider `O=C(Nc1ccc(Cl)c(C(F)(F)F)c1)C(=O)N1CCN(C2CCN(C(=O)c3ccc4[nH]nnc4c3)CC2)CC1` [Compound 72, 2-{4-[1-(1H-Benzotriazole-5-carbonyl)-piperidin-4-yl]-piperazin-1-yl}-N-(4-chloro-3-trifluoromethyl-phenyl)-2-oxo-acetamide], for which the 50% inhibitory concentration (IC50) was below 10 µM.
